This note sets out measurements from patent US11351179B1, “Pharmaceutical compositions and methods for treatment of psychiatric disorders” (LA PharmaTech Inc., priority 2021, dated 2022).

One assay concerns MDD and panic disorder. The assay can be described thus: Clinical case: patient with MDD and panic disorder treated orally once daily. It counts as in vivo, human. Particulars: each drug given for 2 months before the composition. An excerpt: A patient had MDD and panic disorder. […] Because azelastine is approved for the treatment of allergic rhinitis and asthma, and the combination composition of azelastine and folic acid had never been expected to be used to treat patients with depression or anxiety, this dramatic clinical outcome which included a fast reduction of symptoms was unexpected. […] This composition with two mechanisms of action of anti-inflammation would provide a new solution for treating psychiatric diseases which are incurable by other options, such traditional SSRIs, NSRIs, benzodiazepines, and the like alone.

For assay [1], the system named is mild chronic depression and anxiety induced sleep disorder. The assay can be described thus: Clinical case: patient with mild chronic depression and anxiety induced sleep disorder treated once daily. Particulars: citalopram and lorazepam together for 3 months before the composition. Type of assay: in vivo, human. As for the experimental part:
A patient was diagnosed with mild chronic depression and anxiety induced sleep disorder and was treated with citalopram and lorazepam for 3 months. […] Then they were treated with a composition of folic acid (0.19 mg) and azelastine (2 mg) once daily. […] The inventors believe the hypothesis as explained in Example 1 above is applicable here as well. In this case, the composition of two mechanisms of action provided a new solution for treating their chronic depression and insomnia which could not be treated with other options, such traditional SSRIs, NSRIs, benzodiazepines, and the like alone.

`O=C1CC2(CCCC2)CC(=O)N1CCCCN1CCN(c2ncccn2)CC1` [buspirone]: the “clinical improvement on prior treatment” value in the assay with MDD and panic disorder was “no significant clinical improvement”.

Turning to `O=C1Nc2ccc(Cl)cc2C(c2ccccc2Cl)=NC1O` (stereo not drawn) [lorazepam], the “improvement of symptoms on prior treatment” value in assay [1] is recorded as “never improved to the level of their satisfaction”.

Take `CN[C@H]1CC[C@@H](c2ccc(Cl)c(Cl)c2)c2ccccc21` [sertraline]: the “clinical improvement on prior treatment” value in the assay with MDD and panic disorder is listed as “no significant clinical improvement”.
